Seven compounds from PubChem BioAssay AID1259407 (Chemical Carcinogenesis Research Information System (CCRIS), 2018) can be followed below.

This series deals with CCRIS mutagenicity, Ames/micronucleus/aberration tests. The series can be described thus: CCRIS mutagenicity studies.
The mark [1] stands for this setting: Test System: AMES SALMONELLA TYPHIMURIUM, Strain/Indicator: TA98, Metabolic Activation: NONE, Method: STANDARD PLATE.
Setting [2] is: Test System: AMES SALMONELLA TYPHIMURIUM, Strain/Indicator: TA100, Metabolic Activation: NONE, Method: STANDARD PLATE.
The mark [3] stands for this setting: Test System: AMES SALMONELLA TYPHIMURIUM, Strain/Indicator: TA1535, Metabolic Activation: NONE, Method: STANDARD PLATE.
The mark [4] stands for this setting: Test System: AMES SALMONELLA TYPHIMURIUM, Strain/Indicator: TA1537, Metabolic Activation: NONE, Method: STANDARD PLATE.
Where [5] appears, read: Test System: AMES SALMONELLA TYPHIMURIUM, Strain/Indicator: TA1538, Metabolic Activation: NONE, Method: STANDARD PLATE.

Activity calls are given as the source filed them. No rule for the calls is given here.

On to `Nc1cc(-c2ccncc2)c[nH]c1=O`, for which the mutagenic call (Test System: AMES SALMONELLA TYPHIMURIUM, Strain/Indicator: TA97, Metabolic Activation: NONE) was “inactive; negative”; the mutagenic call (Test System: AMES SALMONELLA TYPHIMURIUM, Strain/Indicator: TA97, Metabolic Activation: S-9) is “inactive; negative”; the mutagenic call (Test System: AMES SALMONELLA TYPHIMURIUM, Strain/Indicator: TA98, Metabolic Activation: NONE) is “inactive; negative”; the mutagenic call under setting [1] was “inactive; negative”; the mutagenic call (Test System: AMES SALMONELLA TYPHIMURIUM, Strain/Indicator: TA98, Metabolic Activation: RAT, LIVER, S-9, Method: STANDARD PLATE) is “inactive; negative”; the mutagenic call (Test System: AMES SALMONELLA TYPHIMURIUM, Strain/Indicator: TA98, Metabolic Activation: S-9) was “inactive; negative”. Besides, the mutagenic call runs as follows: under setting [2], “inactive; negative”; (Test System: AMES SALMONELLA TYPHIMURIUM, Strain/Indicator: TA100, Metabolic Activation: RAT, LIVER, S-9, Method: STANDARD PLATE) “inactive; negative”; (Test System: AMES SALMONELLA TYPHIMURIUM, Strain/Indicator: TA100, Metabolic Activation: S-9) “inactive; negative”; (Test System: AMES SALMONELLA TYPHIMURIUM, Strain/Indicator: TA102, Metabolic Activation: NONE) “inactive; negative”; (Test System: AMES SALMONELLA TYPHIMURIUM, Strain/Indicator: TA102, Metabolic Activation: S-9) “inactive; negative”; under setting [3], “inactive; negative”. The mutagenic call reads like this: (Test System: AMES SALMONELLA TYPHIMURIUM, Strain/Indicator: TA1535, Metabolic Activation: RAT, LIVER, S-9, Method: STANDARD PLATE) “inactive; negative”; under setting [4], “inactive; negative”; (Test System: AMES SALMONELLA TYPHIMURIUM, Strain/Indicator: TA1537, Metabolic Activation: RAT, LIVER, S-9, Method: STANDARD PLATE) “inactive; negative”; under setting [5], “inactive; negative”; (Test System: AMES SALMONELLA TYPHIMURIUM, Strain/Indicator: TA1538, Metabolic Activation: RAT, LIVER, S-9, Method: STANDARD PLATE) “inactive; negative”.
Turning to `CC1CCC(C(C)C)C(O)C1` (stereo unspecified), the mutagenic call runs as follows: (End Point: IN VITRO CHROMOSOMAL ABERRATIONS, Test System: CHO CELLS, Metabolic Activation: NONE) “active; positive”; (End Point: IN VITRO CHROMOSOMAL ABERRATIONS, Test System: TK6 HUMAN LYMPHOBLASTS, Metabolic Activation: NONE) “active; positive”.
On to `C=C(C)C(=O)OCCCCOC(=O)C(=C)C`, for which the mutagenic call is “inactive; negative” under setting [1]; “inactive; negative” (Test System: AMES SALMONELLA TYPHIMURIUM, Strain/Indicator: TA98, Metabolic Activation: RAT, LIVER, S-9, AROCLOR 1254, Method: STANDARD PLATE); “inactive; negative” (Test System: AMES SALMONELLA TYPHIMURIUM, Strain/Indicator: TA98, Metabolic Activation: RAT, LIVER, S-9, SODIUM PHENOBARBITAL, Method: STANDARD PLATE); “inactive; negative” under setting [2]; “inactive; negative” (Test System: AMES SALMONELLA TYPHIMURIUM, Strain/Indicator: TA100, Metabolic Activation: RAT, LIVER, S-9, AROCLOR 1254, Method: STANDARD PLATE); “inactive; negative” (Test System: AMES SALMONELLA TYPHIMURIUM, Strain/Indicator: TA100, Metabolic Activation: RAT, LIVER, S-9, SODIUM PHENOBARBITAL, Method: STANDARD PLATE). Moreover, the mutagenic call is, setting by setting: under setting [3], “inactive; negative”; (Test System: AMES SALMONELLA TYPHIMURIUM, Strain/Indicator: TA1535, Metabolic Activation: RAT, LIVER, S-9, AROCLOR 1254, Method: STANDARD PLATE) “inactive; negative”; (Test System: AMES SALMONELLA TYPHIMURIUM, Strain/Indicator: TA1535, Metabolic Activation: RAT, LIVER, S-9, SODIUM PHENOBARBITAL, Method: STANDARD PLATE) “inactive; negative”; under setting [4], “inactive; negative”; (Test System: AMES SALMONELLA TYPHIMURIUM, Strain/Indicator: TA1537, Metabolic Activation: RAT, LIVER, S-9, AROCLOR 1254, Method: STANDARD PLATE) “inactive; negative”; (Test System: AMES SALMONELLA TYPHIMURIUM, Strain/Indicator: TA1537, Metabolic Activation: RAT, LIVER, S-9, SODIUM PHENOBARBITAL, Method: STANDARD PLATE) “inactive; negative”. Besides, the mutagenic call reads like this: under setting [5], “inactive; negative”; (Test System: AMES SALMONELLA TYPHIMURIUM, Strain/Indicator: TA1538, Metabolic Activation: RAT, LIVER, S-9, AROCLOR 1254, Method: STANDARD PLATE) “inactive; negative”; (Test System: AMES SALMONELLA TYPHIMURIUM, Strain/Indicator: TA1538, Metabolic Activation: RAT, LIVER, S-9, SODIUM PHENOBARBITAL, Method: STANDARD PLATE) “inactive; negative”.
For `OCc1cc2ccc3cccc4ccc(c1)c2c34`, the mutagenic call (Test System: AMES SALMONELLA TYPHIMURIUM, Strain/Indicator: TA98, Metabolic Activation: HUMAN, LIVER, CYTOSOL, PAPS, Method: PREINCUBATION) is “active; positive”.
Consider `C=COC(N)=O`, for which the mutagenic call runs as follows: (End Point: In vivo micronucleus, Test System: Peripheral blood reticulocytes, Species: Mouse, Strain/Sex: F1 (Big Blue x A/J) transgenic/Male and female, Route: Intraperitoneal) “active; positive”; (Test System: UDS MOUSE SPERMATIDS, Strain/Indicator: THY INCORP, Metabolic Activation: NONE) “active; positive”.
With `O=S(=O)(O)Oc1c2ccccc2c2ccc3cccc4ccc1c2c43`, the mutagenic call is “inactive; negative” (Test System: AMES SALMONELLA TYPHIMURIUM, Strain/Indicator: TA98, Metabolic Activation: NONE, Method: PREINCUBATION) and “inactive; negative” (Test System: AMES SALMONELLA TYPHIMURIUM, Strain/Indicator: TA98, Metabolic Activation: RAT, LUNG, S-9, Method: PREINCUBATION).
Take `Nc1cccc2cc3c(nc12)CCCC3`: the mutagenic call is, setting by setting: (Test System: AMES SALMONELLA TYPHIMURIUM, Strain/Indicator: TA97A, Metabolic Activation: NONE, Method: STANDARD PLATE) “active; positive”; (Test System: AMES SALMONELLA TYPHIMURIUM, Strain/Indicator: TA97A, Metabolic Activation: RAT, LIVER, S-9, AROCLOR 1254, Method: STANDARD PLATE) “active; positive”.
